The values below come from patent publication US20240239771A1, “BACTERIAL EFFLUX PUMP INHIBITORS” (priority 2020, published 2024).

Assay [1] deals with Pseudomonas aeruginosa ATCC 27853. Put plainly: Intrinsic MIC assay (CLSI broth microdilution). It counts as cell-based. As for the experimental part:
MIC assays were conducted in accordance with Clinical and Laboratory Standards Institute (CLSI) guidelines for broth microdilution. A 96-well plate containing cation-adjusted Mueller-Hinton (CAMH broth with 2-fold serial dilution of compounds was inoculated with log-phase bacterial at 5×10^5 CFU/mL. The final volume in each well was 100 μL. Each compound was tested in duplicate. The microtiter plates were incubated in an aerobic environment for 18 hours at 37° C. Then the bacterial growth was tested by reading the plate with a VersaMax plate reader (Molecular Devices, Inc.) at 600 nm. The MIC was defined as the lowest compound concentration that inhibited 90% of bacteria growth.
The intrinsic MIC of the experimental EPIs was tested with the method described. The 2-fold serial dilution begins with 100 μg/mL of tested compound in the first column of the 96-well plates. The following Gram-negative bacterial strain was included in these assays: Pseudomonas aeruginosa ATCC 27853.

Assay [2] has the same test system. The assay is described as follows: Standard EPI assay: MIC of test antibiotic in absence and presence of EPI. The note with it: for Enhanced Antibiotic's Activity (fold increase), Ceftazidime: ceftazidime with compound at 6.25 μg/mL, relative to MIC without EPI (2 μg/mL); for Enhanced Antibiotic's Activity (fold increase), Doxycycline: doxycycline with compound at 6.25 μg/mL, relative to MIC without EPI (32 μg/mL); for Enhanced Antibiotic's Activity (fold increase), Levofloxacin: levofloxacin with compound at 6.25 μg/mL, relative to MIC without EPI (1 μg/mL). It counts as cell-based. How it is done: The EPI assay for the purposes of these studies represents a MIC assay in which the MIC of the antibiotic against the bacteria is tested in the presence of an experimental efflux pump inhibitor (EPI). The highest concentration of the EPI present in the assay typically is ½ of the intrinsic MIC of the compound. If the intrinsic MIC of the EPI is greater than 100 μg/mL, the EPI assay was tested with 50 μg/mL. Using serial dilutions of the EPI, its enhancement of antibiotic activity was then evaluated. The relative EPI activity was decided by comparing the MIC of the antibiotic in the presence of the EPI compound with the intrinsic MIC of the antibiotic alone.
The impact of the EPIs on the MIC values of three test antibiotics (levofloxacin, ceftazidime and doxycycline) against P. aeruginosa ATCC 27853 were evaluated using our standard EPI assay. All three antibiotics levofloxacin, ceftazidime and doxycycline are known substrates of efflux pumps in P. aeruginosa, and are thus well-suited to be test antibiotics to assay for EPI activity.
In our standard EPI assay, the MIC of the test antibiotic is determined in the absence and presence of sub-inhibitory concentrations of the EPI. […] The MIC of levofloxacin against P. aeruginosa ATCC 27853 in the absence of EPI is 1 μg/mL. […] Similarly, the MIC of ceftazidime against P. aeruginosa ATCC 27853 in the absence of EPI is 2 μg/mL. In the presence of 6.25 μg/mL of the Example 4, the MIC of ceftazidime was reduced to 0.5 μg/mL, a 4-fold reduction. […] For all the examples in Table 1, the potentiation activities are determined at 6.25 μg/mL.

Where [3] appears, read: ATCC27853, read-out: Intrinsic MIC of Compound.
Where [4] appears, read: ATCC27853, P. aeruginosa ATCC 27853, compound alone, read-out: Intrinsic MIC of Compound.

Each structure is given as a SMILES string. Where a name gives a salt, the structure may show the parent alone. Read-outs that look alike come from different tables or passages of the source. A value given as a limit tells only on which side of the number the result lay.

`NCCOC[C@H](N)CNC(=O)c1[nH]c2ccccc2c1-c1ccc(F)cc1` [Example 19, (R)—N-(2-amino-3-(2-aminoethoxy)propyl)-3-(4-fluorophenyl)-1H-indole-2-carboxamide hydrogen chloride salt]: the minimum inhibitory concentration (MIC) in assay [1] (setting [3]) was over 100 mg/L. Moreover, in assay [2], the “Enhanced Antibiotic's Activity (fold increase), Ceftazidime” value is reported as 2 fold; the “Enhanced Antibiotic's Activity (fold increase), Doxycycline” value is 16 fold; the “Enhanced Antibiotic's Activity (fold increase), Levofloxacin” value turned out to be 16 fold.

For `N#Cc1ccc(-c2c(C(=O)NC[C@@H](N)COCCN)[nH]c3ccc(F)cc23)cc1` [Example 20, (R)—N-(2-amino-3-(2-aminoethoxy)propyl)-3-(4-cyanophenyl)-5-fluoro-1H-indole-2-carboxamide hydrogen chloride salt], the minimal inhibitory concentration (MIC) in assay [1] (setting [3]) was over 100 mg/L. In addition, in assay [2], the “Enhanced Antibiotic's Activity (fold increase), Ceftazidime” value is listed as 2 fold; the “Enhanced Antibiotic's Activity (fold increase), Doxycycline” value was determined as 16 fold; the “Enhanced Antibiotic's Activity (fold increase), Levofloxacin” value is listed as 16 fold.

Take `NCCOC[C@H](N)CNC(=O)c1[nH]c2ccccc2c1-c1ccccc1` [Example 21, (R)—N-(2-amino-3-(2-aminoethoxy)propyl)-3-phenyl-1H-indole-2-carboxamide hydrogen chloride salt]: the minimal inhibitory concentration (MIC) in assay [1] (setting [3]) is over 100 mg/L. For the same compound, in assay [2], the “Enhanced Antibiotic's Activity (fold increase), Ceftazidime” value is on record as 1 fold; the “Enhanced Antibiotic's Activity (fold increase), Doxycycline” value is 16 fold; the “Enhanced Antibiotic's Activity (fold increase), Levofloxacin” value worked out at 4 fold.

Take `NCCOC[C@H](N)CNC(=O)c1[nH]c2ccc(F)cc2c1C1CCCCC1` [Example 22, (R)—N-(2-amino-3-(2-aminoethoxy)propyl)-3-cyclohexyl-5-fluoro-1H-indole-2-carboxamide hydrogen chloride salt]: the minimum inhibitory concentration (MIC) in assay [1] (setting [3]) was 25 mg/L. Further, in assay [2], the “Enhanced Antibiotic's Activity (fold increase), Levofloxacin” value is on record as 32 fold.

For `NC[C@H]1CN[C@H](CNC(=O)c2[nH]c3ccccc3c2-c2ccc(F)cc2)[C@H]1O` [Example 23, N-(((2R,3S,4S)-4-(aminomethyl)-3-hydroxypyrrolidin-2-yl)methyl)-3-(4-fluorophenyl)-1H-indole-2-carboxamide hydrogen chloride salt], the minimum inhibitory concentration (MIC) in assay [1] (setting [3]) was over 100 mg/L. In addition, in assay [2], the “Enhanced Antibiotic's Activity (fold increase), Ceftazidime” value stood at 2 fold; the “Enhanced Antibiotic's Activity (fold increase), Doxycycline” value was determined as 16 fold; the “Enhanced Antibiotic's Activity (fold increase), Levofloxacin” value worked out at 8 fold.

For `NC[C@H]1CN[C@H](CNC(=O)c2[nH]c3ccc(F)cc3c2-c2ccccc2)[C@H]1O` [Example 24, N-(((2R,3S,4S)-4-(aminomethyl)-3-hydroxypyrrolidin-2-yl)methyl)-5-fluoro-3-phenyl-1H-indole-2-carboxamide hydrogen chloride salt], in assay [1] (setting [3]), the MIC was over 100 mg/L. Further, the “Enhanced Antibiotic's Activity (fold increase), Levofloxacin” value in assay [2] was found to be 16 fold.

As for `NC[C@H]1CN[C@H](CNC(=O)c2[nH]c3ccccc3c2-c2ccc(F)cc2)C1=O` [Example 25, N-(((2R,4S)-4-(aminomethyl)-3-oxopyrrolidin-2-yl)methyl)-3-(4-fluorophenyl)-1H-indole-2-carboxamide hydrogen chloride salt], the MIC in assay [1] (setting [3]) is over 100 mg/L. For the same compound, in assay [2], the “Enhanced Antibiotic's Activity (fold increase), Ceftazidime” value was determined as 1 fold; the “Enhanced Antibiotic's Activity (fold increase), Doxycycline” value turned out to be 1 fold; the “Enhanced Antibiotic's Activity (fold increase), Levofloxacin” value is 1 (1) fold.

Consider `NC[C@H]1CN[C@H](CNC(=O)c2[nH]c3ccccc3c2-c2ccc(F)cc2)[C@@H]1O` [Example 26, N-(((2R,3R,4S)-4-(aminomethyl)-3-hydroxypyrrolidin-2-yl)methyl)-3-(4-fluorophenyl)-1H-indole-2-carboxamide hydrogen chloride salt], for which, in assay [1] (setting [3]), the minimum inhibitory concentration (MIC) was over 100 mg/L. Also, in assay [2], the “Enhanced Antibiotic's Activity (fold increase), Ceftazidime” value is reported as 2 fold; the “Enhanced Antibiotic's Activity (fold increase), Doxycycline” value turned out to be 32 fold; the “Enhanced Antibiotic's Activity (fold increase), Levofloxacin” value is reported as 16 fold.

For `NCC1(O)CN[C@H](CNC(=O)c2[nH]c3ccc(F)cc3c2-c2ccccc2Cl)C1` (stereo partly drawn) [Example 27, N-(((2S)-4-(aminomethyl)-4-hydroxypyrrolidin-2-yl)methyl)-3-(2-chlorophenyl)-5-fluoro-1H-indole-2-carboxamide hydrogen chloride salt], the MIC in assay [1] (setting [3]) was over 100 mg/L. The “Enhanced Antibiotic's Activity (fold increase), Levofloxacin” value in assay [2] is on record as 1 (1) fold.

Regarding `NCCC(O)[C@@H](N)CNC(=O)c1cc2cccc(-c3ccc(F)cc3)c2[nH]1` (stereo partly drawn) [Example 28, N-((2S)-2,5-diamino-3-hydroxypentyl)-7-(4-fluorophenyl)-1H-indole-2-carboxamide hydrogen chloride salt], in assay [1] (setting [3]), the MIC was 50 mg/L. Also, the “Enhanced Antibiotic's Activity (fold increase), Levofloxacin” value in assay [2] came out at 16 fold.

With `NCC(O)C[C@H](N)CNC(=O)c1[nH]c2ccccc2c1Sc1cccc(F)c1` (stereo partly drawn) [Example 29, N-((2S)-2,5-diamino-4-hydroxypentyl)-3-((3-fluorophenyl)thio)-1H-indole-2-carboxamide hydrogen chloride salt], the minimal inhibitory concentration (MIC) in assay [1] (setting [3]) is 200 mg/L. Also, in assay [2], the “Enhanced Antibiotic's Activity (fold increase), Ceftazidime” value is on record as 2 fold; the “Enhanced Antibiotic's Activity (fold increase), Doxycycline” value is 64 fold; the “Enhanced Antibiotic's Activity (fold increase), Levofloxacin” value was found to be 32 fold.

On to `NC[C@@H](O)C[C@H](N)CNC(=O)c1cc2ccc(-c3ccc(F)cc3)cc2[nH]1` [Example 30, 6-(4-fluorophenyl)-N-((2S)-2,5-diamino-4-hydroxypentyl)-1H-indole-2-carboxamide hydrogen chloride salt], for which the MIC in assay [1] (setting [3]) stood at 50 mg/L. For the same compound, the “Enhanced Antibiotic's Activity (fold increase), Levofloxacin” value in assay [2] was found to be 16 fold.

Regarding `NCCOC[C@H](N)CNC(=O)c1cc2ccc(-c3ccc(F)cc3)cc2[nH]1` [Example 31, (R)—N-(2-amino-3-(2-aminoethoxy)propyl)-6-(4-fluorophenyl)-1H-indole-2-carboxamide hydrogen chloride salt], the MIC in assay [1] (setting [3]) is over 200 mg/L. For the same compound, in assay [2], the “Enhanced Antibiotic's Activity (fold increase), Ceftazidime” value came out at 4 fold; the “Enhanced Antibiotic's Activity (fold increase), Doxycycline” value was determined as 32 fold; the “Enhanced Antibiotic's Activity (fold increase), Levofloxacin” value was 8 fold.

`NCCOC[C@H](N)CNC(=O)c1cc2ccc(-c3ccccc3)cc2[nH]1` [Example 32, (R)—N-(2-amino-3-(2-aminoethoxy)propyl)-6-phenyl-1H-indole-2-carboxamide hydrogen chloride salt]: in assay [1] (setting [3]), the minimum inhibitory concentration (MIC) is over 200 mg/L. The “Enhanced Antibiotic's Activity (fold increase), Levofloxacin” value in assay [2] was 4 fold.

Take `Cc1c(C(=O)NC[C@@H](N)COCCN)[nH]c2cccc(-c3ccc(F)cc3)c12` [Example 33, (R)—N-(2-amino-3-(2-aminoethoxy)propyl)-4-(4-fluorophenyl)-3-methyl-1H-indole-2-carboxamide hydrogen chloride salt]: the MIC in assay [1] (setting [3]) was 100 mg/L. Besides, in assay [2], the “Enhanced Antibiotic's Activity (fold increase), Doxycycline” value stood at 128 fold and the “Enhanced Antibiotic's Activity (fold increase), Levofloxacin” value was found to be 32 fold.

Turning to `NCCC[C@H](N)COC[C@H](N)CNC(=O)c1[nH]c2ccccc2c1-c1ccc(F)cc1` [Example 34, N—((R)-2-amino-3-(((S)-2,5-diaminopentyl)oxy)propyl)-3-(4-fluorophenyl)-1H-indole-2-carboxamide hydrogen chloride salt], the minimal inhibitory concentration (MIC) in assay [1] (setting [3]) is over 200 mg/L. Moreover, in assay [2], the “Enhanced Antibiotic's Activity (fold increase), Doxycycline” value is listed as 32 fold and the “Enhanced Antibiotic's Activity (fold increase), Levofloxacin” value was 8 fold.

On to `NCC(O)[C@H](N)CNC(=O)c1[nH]c2ccccc2c1-c1ccc(F)cc1` (stereo partly drawn) [Example 35, N-((2R)-2,4-diamino-3-hydroxybutyl)-3-(4-fluorophenyl)-1H-indole-2-carboxamide], for which the minimal inhibitory concentration (MIC) in assay [1] (setting [4]) is 200 mg/L. The “Enhanced Antibiotic's Activity (fold increase), Levofloxacin” value in assay [2] was 4 fold.

`NCC(O)[C@H](N)CNC(=O)c1[nH]c2ccccc2c1C1CCCC1` (stereo partly drawn) [Example 36, 3-cyclopentyl-N-((2R)-2,4-diamino-3-hydroxybutyl)-1H-indole-2-carboxamide]: in assay [1] (setting [4]), the minimum inhibitory concentration (MIC) was 100 mg/L. In assay [2], the “Enhanced Antibiotic's Activity (fold increase), Ceftazidime” value is 2 fold; the “Enhanced Antibiotic's Activity (fold increase), Doxycycline” value is recorded as 32 fold; the “Enhanced Antibiotic's Activity (fold increase), Levofloxacin” value is given as 8 fold.
